From patent US20220024877A1 (Kansas State University Research Foundation, priority 2018, published 2022)
Converted amounts (≈) assume the structure as drawn. Where two headings read alike, the source gives them in different places.

Columns and labels:
[1] = Copper(I) binding constant of NNSN compounds (1H-NMR titration with CuBr in D4-methanol); conditions: for Binding constant: Cu-NNSN 1:1 stoichiometry; for Copper (I) binding constant: Table I
Procedure: They were recorded in D4-methanol by means of adding aliquots of a 5 mmol CuBr stock solution in D4-methanol to the 1 mmol NNSN-compound, resulting in 0, 0.5, 1.0, 2.0 and 3.0 mmol CuBr concentration in D4-methanol.

[2] = tested on: MRSA; assay: In vitro activity against S. aureus (MRSA), MIC with or without Cu supplementation; conditions: for MIC: Staphylococcus aureus, MRSA; for MIC* against MRSA: kinetic data (determined from bacteria growth experiments), resulting in IC50 values similar to MIC values
Procedure: S. aureus was inoculated in Mueller-Hinton medium from frozen stocks and grown for 2-4 h (until reaching an OD600˜1) at 37° C. while shaking. Once the OD was reached, bacteria were harvested and diluted in Phenolred-free RPMI1640 medium to an OD of 0.01 (=inoculum). Test compounds where diluted from frozen DMSO-stocks were diluted in Phenolred-free RPMI1640 medium with or without Cu supplementation (100 μM) and serially diluted in 96-well plates in the same medium to achieve a final concentration of between 0.08 and 10 μM after addition of an equal volume of inoculum. Medium-only controls and growth controls in the absence of test compounds were also included. The plates were placed in sealed bags and incubated at 37° C. After 15-20 h incubation time, an OD600 reading was taken and analyzed. […] If kinetic data were required, resazurin was added to each well. Using a plate reader with incubation chamber, resazurin conversion was monitored by fluorescence reading every 20 min for up to 24 h. After normalizing the data to respective controls, the MIC was determined using the same definition as above.

[3] = Therapeutic index (approx.)
[4] = log P (octanol/water partition coefficient); type: physicochemical
[5] = tested on: S. aureus strain 1471; assay: Drop assay against S. aureus strain 1471 with or without copper
Procedure: For the drop assay, bacteria were grown in wells with or without copper, using a 1:2 drug titration starting at 10 μM.

[6] = tested on: Avirulent Mtb strain mc26206 (H37Rv ΔpanCD ΔleuCD, double auxotroph); assay: microbe, parasite or virus in culture; type: cell-based; conditions: Mycobacterium tuberculosis
[7] = tested on: multi-drug resistant Gram-positive bacteria; conditions: current antibiotics, background section; cited from earlier work
[8] = read-out: MIC* against MRSA (μM), kinetic data (determined from bacteria growth experiments), resulting in IC50 values similar to MIC values
[9] = Staphylococcus aureus, MRSA, read-out: MIC against MRSA (clinical isolate 1471)
[10] = Staphylococcus aureus, 1471, read-out: MIC: +50 μM Cu

S=C(Nc1ccc(Cl)cc1)n1cccn1 [listing 1 of 2 here]
Binding constant [1]: 2100 M⁻¹
Copper (I) binding constant [1]: 2100 M⁻¹
MIC ([2]; organism not named there): 5 µM (≈ 1.19 µg/mL)
MIC* against MRSA [2]: 5.0 µM (≈ 1.19 µg/mL)

S=C(Nc1ccc(Cl)cc1)n1cccn1 [listing 2 of 2 here]
Copper (I) binding constant [1]: 1434 M⁻¹
MIC* against MRSA [2]: 1.25 µM (≈ 0.297 µg/mL)

CC(C)(C)n1ccc(NC(=O)Nc2ccc(Cl)cc2)n1 [SB10, 1-(1-(tert-butyl)-1H-pyrazol-3-yl)-3-(4-chlorophenyl)urea]
Binding constant [1]: 1786.13 M⁻¹

Cn1ccc(NC(=O)Nc2ccc(Cl)cc2)n1 [SB11, 1-(4-chlorophenyl)-3-(1-methyl-1H-pyrazol-3-yl)urea]
Binding constant [1]: < 100 M⁻¹

S=C(Nc1ccc(Cl)cc1)n1ccnn1 [SB18]
Binding constant [1]: < 1000 M⁻¹

FC(F)(F)c1ccn(C(=S)Nc2ccc(Cl)cc2)n1 [SB20]
Binding constant [1]: < 1000 M⁻¹

O=[N+]([O-])c1ccc(NC(=S)n2cccn2)cc1 [SB21, N-(4-nitrophenyl)-1H-pyrazole-1-carbothioamide]
Binding constant [1]: 26063 M⁻¹
MIC ([2]; organism not named there): 10 µM (≈ 2.48 µg/mL)

COc1ccc(NC(=S)n2cccn2)cc1 [SB22, N-(4-methoxyphenyl)-1H-pyrazole-1-carbothioamide]
Binding constant [1]: 3975 M⁻¹
Copper (I) binding constant [1]: 3975 M⁻¹
Therapeutic index (approx.) [3]: >2
MIC [2, 8]: 10 µM (≈ 2.33 µg/mL)
MIC ([2]; organism not named there): 10 µM (≈ 2.33 µg/mL)

Fc1ccc(NC(=S)n2cccn2)cc1 [SB23, N-(4-fluorophenyl)-1H-pyrazole-1-carbothioamide]
Binding constant [1]: 22057 M⁻¹
MIC ([2]; organism not named there): > 10 µM

Cc1ccc(NC(=S)n2cccn2)cc1 [SB25, N-(p-tolyl)-1H-pyrazole-1-carbothioamide]
Copper (I) binding constant [1]: 1635 M⁻¹
MIC [2, 8]: 5 µM (≈ 1.09 µg/mL)

S=C(Nc1ccc(Br)cc1)n1cccn1 [SB26, N-(4-bromophenyl)-1H-pyrazole-1-carbothioamide]
Copper (I) binding constant [1]: 1550 M⁻¹
MIC [2, 8]: 10 µM (≈ 2.82 µg/mL)

O=[N+]([O-])c1ccc(NC(=S)Nc2cc[nH]n2)cc1 [SB28, 1-(4-nitrophenyl)-3-(1H-pyrazol-3-yl)thiourea]
Binding constant [1]: 1200 M⁻¹
MIC ([2]; read-out: MIC (MRSA), MRSA): 5 µM (≈ 1.32 µg/mL)

Cn1ccc(NC(=S)Nc2ccc(Cl)cc2)n1 [SB29]
Binding constant [1]: 1150 M⁻¹

O=[N+]([O-])c1cnn(C(=S)Nc2ccc(Cl)cc2)c1 [SB30, N-(4-chlorophenyl)-4-nitro-1H-pyrazole-1-carbothioamide]
Binding constant [1]: 1100 M⁻¹

COc1ccc(NC(=S)n2ccc(N)n2)cc1 [SB31, 3-amino-N-(4-methoxyphenyl)-1H-pyrazole-1-carbothioamide]
Copper (I) binding constant [1]: 5452 M⁻¹
MIC [2, 8]: 10 µM (≈ 2.48 µg/mL)

Cc1ccc(NC(=S)n2ccc(N)n2)cc1 [SB32, 3-amino-N-(p-tolyl)-1H-pyrazole-1-carbothioamide]
Copper (I) binding constant [1]: 6140 M⁻¹
MIC [2, 8]: 2.5 µM (≈ 0.581 µg/mL)

Nc1ccn(C(=S)Nc2ccc(Br)cc2)n1 [SB33, 3-amino-N-(4-bromophenyl)-1H-pyrazole-1-carbothioamide]
Copper (I) binding constant [1]: 5830 M⁻¹
MIC [2, 8]: 1.25 µM (≈ 0.371 µg/mL)

Nc1ccn(C(=S)Nc2ccc(F)cc2)n1 [SB37, 3-amino-N-(4-fluorophenyl)-1H-pyrazole-1-carbothioamide]
Copper (I) binding constant [1]: 5540 M⁻¹
MIC [2, 8]: 10 µM (≈ 2.36 µg/mL)

O=[N+]([O-])c1cnn(C(=S)Nc2ccc(Cl)cc2)c1 [SB38]
Binding constant [1]: < 100 M⁻¹

Nc1cnn(C(=S)Nc2ccc(Cl)cc2)c1 [SB39]
Binding constant [1]: 2200 M⁻¹

CN(C)c1ccn(C(=S)Nc2ccc(Cl)cc2)n1 [SB40, N-(4-chlorophenyl)-3-(dimethylamino)-1H-pyrazole-1-carbothioamide]
Copper (I) binding constant [1]: 58500 M⁻¹
MIC [2, 8]: 0.6 µM (≈ 0.168 µg/mL)

S=C(Nc1ccc(Cl)cc1)n1ccc(OCc2ccccc2)n1 [SB44, 3-(benzyloxy)-N-(4-chlorophenyl)-1H-pyrazole-1-carbothioamide]
logP [4]: 4.74
MIC [5, 9]: 0.15 µM (≈ 0.0516 µg/mL)
MIC [2, 8]: 0.15 µM (≈ 0.0516 µg/mL)

CN(C(=S)Nc1ccc(Cl)cc1)c1ccn(C(=S)Nc2ccc(Cl)cc2)n1 [SB45, N-(4-chlorophenyl)-3-(3-(4-chlorophenyl)-1-methylthioureido)-1H-pyrazole-1-carbothioamide]
IC50 ([6]; read-out: IC50 +Cu): 2 µM
IC50 ([6]; read-out: IC50 −Cu): > 50 µM
MIC90 ([6]; read-out: MIC90 +Cu): 3.5 µM (≈ 1.53 µg/mL)
MIC90 ([6]; read-out: MIC90 −Cu): > 100 µM
MIC [2, 8]: < 0.016 µM

S=C(Nc1ccccc1Cl)n1cccn1 [SB46, N-(2-chlorophenyl)-1H-pyrazole-1-carbothioamide]
IC50 ([6]; read-out: IC50 +Cu): 10 µM
IC50 ([6]; read-out: IC50 −Cu): > 100 µM
MIC90 ([6]; read-out: MIC90 +Cu): > 100 µM
MIC90 ([6]; read-out: MIC90 −Cu): > 100 µM
MIC [2, 8]: 0.3 µM (≈ 0.0713 µg/mL)

Cc1nn(C(=S)Nc2ccc(Cl)cc2)cc1[N+](=O)[O-] [SB47, N-(4-chlorophenyl)-3-methyl-4-nitro-1H-pyrazole-1-carbothioamide]
MIC [2, 8]: 2.5 µM (≈ 0.742 µg/mL)

Nc1ccn(C(=S)Nc2ccccc2Cl)n1 [SB49, 3-amino-N-(2-chlorophenyl)-1H-pyrazole-1-carbothioamide]
MIC [2, 8]: 0.6 µM (≈ 0.152 µg/mL)

Nc1ccn(C(=S)Nc2cccc(Cl)c2)n1 [SB50, 3-amino-N-(3-chlorophenyl)-1H-pyrazole-1-carbothioamide]
MIC [2, 8]: 0.15 µM (≈ 0.0379 µg/mL)

S=C(Nc1cccc(Cl)c1)n1cccn1 [SB52, N-(3-chlorophenyl)-1H-pyrazole-1-carbothioamide]
MIC [2, 8]: 2.5 µM (≈ 0.594 µg/mL)

S=C(Nc1ccn(C(=S)Nc2ccccc2Cl)n1)Nc1ccccc1Cl [SB53, N-(2-chlorophenyl)-3-(3-(2-chlorophenyl)thioureido)-1H-pyrazole-1-carbothioamide]
MIC [2, 8]: 0.3 µM (≈ 0.127 µg/mL)

CN(C(=S)Nc1cccc(Cl)c1)c1ccn(C(=S)Nc2cccc(Cl)c2)n1 [SB54, N-(3-chlorophenyl)-3-(3-(3-chlorophenyl)-1-methylthioureido)-1H-pyrazole-1-carbothioamide]
logP [4]: 5.9
MIC [5, 10]: 0.15 µM (≈ 0.0655 µg/mL)
MIC [5, 9]: 0.15 µM (≈ 0.0655 µg/mL)

CN(C(=S)Nc1ccccc1Cl)c1ccn(C(=S)Nc2ccccc2Cl)n1 [SB55, N-(2-chlorophenyl)-3-(3-(2-chlorophenyl)-1-methylthioureido)-1H-pyrazole-1-carbothioamide]
MIC [5, 10]: 10 µM (≈ 4.36 µg/mL)

O=[N+]([O-])c1cnn(C(=S)Nc2ccccc2Cl)c1 [SB56, N-(2-chlorophenyl)-4-nitro-1H-pyrazole-1-carbothioamide]
MIC [5, 10]: 5 µM (≈ 1.41 µg/mL)

S=C(Nc1cccc(Cl)c1)Nc1ccn(C(=S)Nc2cccc(Cl)c2)n1 [SB57, N-(3-chlorophenyl)-3-(3-(3-chlorophenyl)thioureido)-1H-pyrazole-1-carbothioamide]
MIC [5, 10]: 0.6 µM (≈ 0.253 µg/mL)

O=[N+]([O-])c1cnn(C(=S)Nc2cccc(Cl)c2)c1 [SB59, N-(3-chlorophenyl)-4-nitro-1H-pyrazole-1-carbothioamide]
MIC [5, 10]: 2.5 µM (≈ 0.707 µg/mL)

Cc1ccn(C(=S)Nc2ccccc2Cl)n1 [SB60, N-(2-chlorophenyl)-3-methyl-1H-pyrazole-1-carbothioamide]
MIC [5, 10]: 1.25 µM (≈ 0.315 µg/mL)

Nc1cnn(C(=S)NCc2ccccc2Cl)c1 [SB62, 4-amino-N-(2-chlorobenzyl)-1H-pyrazole-1-carbothioamide]
MIC [5, 10]: 5 µM (≈ 1.33 µg/mL)

O=[N+]([O-])c1ccc(COc2ccn(C(=S)Nc3ccc(Cl)cc3)n2)cc1 [SB63, N-(4-chlorophenyl)-3-((4-nitrobenzyl)oxy)-1H-pyrazole-1-carbothioamide]
MIC ([2]; organism not named there): > 10 µM

S=C(Nc1ccccc1Cl)n1ccc(OCc2ccccc2)n1 [SB64, 3-(benzyloxy)-N-(2-chlorophenyl)-1H-pyrazole-1-carbothioamide]
IC50 ([6]; read-out: IC50 +Cu): 0.8 µM
IC50 ([6]; read-out: IC50 −Cu): > 100 µM
MIC90 ([6]; read-out: MIC90 +Cu): 1.6 µM (≈ 0.55 µg/mL)
MIC90 ([6]; read-out: MIC90 −Cu): > 100 µM

S=C(Nc1ccc(Cl)cc1)n1cc(Br)cn1 [SB68, 4-bromo-N-(4-chlorophenyl)-1H-pyrazole-1-carbothioamide]
MIC ([2]; organism not named there): 10 µM (≈ 3.17 µg/mL)

Cc1cccc(C)c1NC(=S)n1cccn1 [SB71, N-(2,6-dimethylphenyl)-1H-pyrazole-1-carbothioamide]
MIC ([2]; organism not named there): 0.6 µM (≈ 0.139 µg/mL)

Cc1ccn(C(=S)Nc2c(C)cccc2C)n1 [SB72, N-(2,6-dimethylphenyl)-3-methyl-1H-pyrazole-1-carbothioamide]
MIC ([2]; organism not named there): 0.6 µM (≈ 0.147 µg/mL)

COC(=O)c1ccn(C(=S)Nc2ccccc2Cl)n1 [SB73]
Copper (I) binding constant [1]: 985.27 M⁻¹
MIC [2, 8]: 5 µM (≈ 1.48 µg/mL)

COC(=O)c1ccn(C(=S)Nc2cccc(Cl)c2)n1 [SB74, Methyl 1-((3-chlorophenyl)carbamothioyl)-1H-pyrazole-3-carboxylate]
Copper (I) binding constant [1]: 1127.86 M⁻¹
MIC [2, 8]: 2.5 µM (≈ 0.739 µg/mL)

CCOC(=O)c1ccn(C(=S)Nc2ccc(Cl)cc2)n1 [SB77]
Copper (I) binding constant [1]: 1580.08 M⁻¹
MIC [2, 8]: 0.6 µM (≈ 0.186 µg/mL)

Nc1ccn(C(=S)Nc2ccc(N=C=S)cc2)n1 [SB79, 3-amino-N-(4-isothiocyanatophenyl)-1H-pyrazole-1-carbothioamide]
IC50 ([6]; read-out: IC50 +Cu): > 100 µM
IC50 ([6]; read-out: IC50 −Cu): > 100 µM
MIC90 ([6]; read-out: MIC90 +Cu): > 100 µM
MIC90 ([6]; read-out: MIC90 −Cu): > 100 µM

CN[C@H](CC(C)C)C(=O)N[C@H]1C(=O)N[C@@H](CC(N)=O)C(=O)N[C@H]2C(=O)N[C@H]3C(=O)N[C@H](C(=O)N[C@H](C(=O)O)c4cc(O)cc(O)c4-c4cc3ccc4O)[C@H](O)c3ccc(c(Cl)c3)Oc3cc2cc(c3O[C@@H]2O[C@H](CO)[C@@H](O)[C@H](O)[C@H]2O[C@H]2C[C@](C)(N)[C@H](O)[C@H](C)O2)Oc2ccc(cc2Cl)[C@H]1O [Vancomycin]
minimum inhibitory concentrations (MICs) [7]: 2.2 µM (≈ 3.19 µg/mL)

Daptinomycin
minimum inhibitory concentrations (MICs) [7]: 0.6 µM

Teicoplanin
minimum inhibitory concentrations (MICs) [7]: 0.8 to 1.0 µM
